Reference: US20230322657A1, “CRYSTALLINE EDG-2 RECEPTOR ANTAGONIST AND METHODS OF MAKING” (Sanofi, priority 2020, published 2023)
Converted amounts (≈) assume the structure as drawn.

Tests used:
[1] = Solubility of polymorphs at pH 7.4 in phosphate buffer at 25° C.; format: physicochemical; details: pH 7.4 phosphate buffer; for Solubility, concentration (equilibrium): 24 hr
Experimental: The solubility of the different polymorphs was determined at pH 7.4 in phosphate buffer at 25° C. Samples were analyzed as a function of time for each form to determine the equilibrium values. The residual solids from each sample were analyzed to verify that the form was unchanged during the experiment. The concentration (mg/mL) versus time data is listed below for each form: […]

[2] = Slurry stability study at room temperature (25° C.), 4 weeks, analysis by FTIR; format: physicochemical; details: for Final form after slurry: 25° C., 4 weeks, FTIR
Experimental: Slurry stability Maturation studies were initially conducted for the purpose of identifying the most […] stable form at room temperature (25° C.
In this set of experiments, both the individual forms and mixtures of forms were slurried in several solvents for 4 weeks, then filtered and analyzed to determine the resulting form. The first set of experiments included pure Form 1, Form 2, Form 3, and mixtures of these forms in equal amounts. The solvents included methanol, ethyl acetate, MEK, and methyl THF in order to investigate a range of solvent polarity. Additional experiments were conducted with a mixture of Form 1 and Form 4 in MEK and methanol.
Analysis was performed by FTIR due to ease of analysis for small quantities. It is interesting to note that the acid carbonyl is shifted to a different location for each polymorph. The results for the first set of experiments are listed below, comparing the starting form with the final form.

[3] = Slurry conversion study at 40-70° C., Form 1/Form 2 1:1 mixture; format: physicochemical
Experimental: Slurry converstion studies were also conducted at 40-70° C. with Forms 1 and 2 to determine a transition temperature between the forms. A mixture of Form 1 and Form 2 at a (1:1 ratio) was slurried at 40° C., 50° C., 60° C., and 70° C. in two different solvents at each temperature and then analyzed to determine the direction of transformation. At 40° C. and 50° C., Methanol and MEK were used. At 60° C. and 70° C. MEK and 1-Pentanol were used.

[4] = Dynamic vapor sorption (DVS); format: physicochemical; details: 25° C.
Experimental: Moisture sorption/desorption isotherms are recorded on a DVS-1 from SURFACE MEASUREMENT SYSTEMS. Two cycles are run at 25° C., in which the Relative Humidity (RH) is stepped from 0 to 95% and back to 0%. The data is evaluated with the software DVSWin V. 2.15.

[5] = tested on: mouse model of skin fibrosis; details: cited from earlier work
[6] = tested on: patients with diffuse cutaneous systemic sclerosis SSc (dcSSc); details: cited from earlier work
[7] = Estimated hot solubility in solvents at elevated temperature (approximately solvent boiling point); format: physicochemical
Experimental: Compound I was dissolved in a variety of solvents at elevated temperature (approximately at solvent boiling point) to provide solutions of Compound I with a maximum concentration of 15 mg/mL. The input material in these experiments was a mixture of polymorphic forms 1, 2, and 3.
When concentrations of Compound I was greater than 2 mg/mL, the solutions were filtered and evaporated at 25° C. to isolate the solid.

With `COc1ccc(C(=O)NC2(C(=O)O)Cc3ccccc3C2)cc1OCCc1cccc(C)c1` [Form 2, 2-(4-methoxy-3-(3-methylphenethoxy)benzamido)-2,3-dihydro-1H-indene-2-carboxylic acid] the solubility at 24 h ([1]; aqueous buffer, thermodynamic from solid, read-out: Solubility, concentration (equilibrium)) was 57 µg/mL (≈ 128 µM), the “24 hour solubility, greater than Form 1 by” value [1] was “more than 30%” and the “Final form after slurry” value ([2]; Ethyl Acetate) was “Form 2”. The “Final form after slurry” value ([2]; MEK) was “Form 1”, the “Final form after slurry” value ([2]; Methanol) was “Form 2” and the “Final form after slurry” value ([2]; Methyl THF) was “Form 2”.
In the case of `COc1ccc(C(=O)NC2(C(=O)O)Cc3ccccc3C2)cc1OCCc1cccc(C)c1` [mixture of Form 1 and Form 2], the “Form after slurry (direction of transformation)” value ([3]; 1-Pentanol, 60° C.) is reported as “Form 2”, the “Form after slurry (direction of transformation)” value ([3]; 1-Pentanol, 70° C.) is reported as “Form 2” and the “Form after slurry (direction of transformation)” value ([3]; MEK, 40° C.) is reported as “Form 1”. For the same molecule, the “Form after slurry (direction of transformation)” value ([3]; MEK, 50° C.) was “Form 1”, the “Form after slurry (direction of transformation)” value ([3]; MEK, 60° C.) was “Form 2” and the “Form after slurry (direction of transformation)” value ([3]; MEK, 70° C.) was “Form 2”. For the same molecule, the “Form after slurry (direction of transformation)” value ([3]; Methanol, 40° C.) was “Form 1” and the “Form after slurry (direction of transformation)” value ([3]; Methanol, 50° C.) was “Form 1”.
In the case of `COc1ccc(C(=O)NC2(C(=O)O)Cc3ccccc3C2)cc1OCCc1cccc(C)c1` [Form 3, 2-(4-methoxy-3-(3-methylphenethoxy)benzamido)-2,3-dihydro-1H-indene-2-carboxylic acid], the “Equilibrium solubility at 24 hours compared with Form 1” value [1] is reported as “more than double”, the “Solubility, concentration (equilibrium)” value [1] is reported as 0.097 mg/mL (≈ 218 µM) and the “Final form after slurry” value ([2]; Ethyl Acetate) is reported as “Form 1”. The “Final form after slurry” value ([2]; MEK) was “Form 1”, the “Final form after slurry” value ([2]; Methanol) was “Form 1” and the “Final form after slurry” value ([2]; Methyl THF) was “Form 1”.
With `COc1ccc(C(=O)NC2(C(=O)O)Cc3ccccc3C2)cc1OCCc1cccc(C)c1` [mixtures of Form 4 and Form 1] the “Final form after slurry” value ([2]; MEK) was “Form 1” and the “Final form after slurry” value ([2]; Methanol) was “Form 1”.
In the case of `COc1ccc(C(=O)NC2(C(=O)O)Cc3ccccc3C2)cc1OCCc1cccc(C)c1` [Form 4, 2-(4-methoxy-3-(3-methylphenethoxy)benzamido)-2,3-dihydro-1H-indene-2-carboxylic acid], the “Equilibrium solubility at 24 hours compared with Form 1” value [1] is reported as “more than double” and the “Solubility, concentration (equilibrium)” value [1] is reported as 0.102 mg/mL (≈ 229 µM).
For `COc1ccc(C(=O)NC2(C(=O)O)Cc3ccccc3C2)cc1OCCc1cccc(C)c1` [Forms 1, 2, 3], the “Final form after slurry” value ([2]; MEK) was “Form 1”, the “Final form after slurry” value ([2]; Methanol) was “Form 1” and the “Final form after slurry” value ([2]; Methyl THF) was “Form 1”.
In the case of `COc1ccc(C(=O)NC2(C(=O)O)Cc3ccccc3C2)cc1OCCc1cccc(C)c1` [Form 1, 2-(4-methoxy-3-(3-methylphenethoxy)benzamido)-2,3-dihydro-1H-indene-2-carboxylic acid], the “Reversible water uptake (bound)” value [4] is reported as “less than 1%”, the Reversible water uptake ([4]; between 0 and 95% RH) is reported as roughly −0.1 % w/w and the “Final form after slurry” value ([2]; Ethyl Acetate) is reported as “Form 1”. The “Final form after slurry” value ([2]; MEK) was “Form 1”, the “Final form after slurry” value ([2]; Methanol) was “Form 1” and the “Final form after slurry” value ([2]; Methyl THF) was “Form 1”. The “Relative stability of the crystal forms” value ([2]; room temperature (25° C.)) was “most stable form”.
In the case of `COc1ccc(C(=O)NC2(C(=O)O)Cc3ccccc3C2)cc1OCCc1cccc(C)c1` [Compound I, 2-(4-methoxy-3-(3-methylphenethoxy)benzamido)-2,3-dihydro-1H-indene-2-carboxylic acid], the Collagen content [5] is listed as “reduced”, the Dermal thickening [5] is listed as “reversed” and the Myofibroblast differentiation [5] is listed as “significantly inhibited”. The Outcome measures [6] was “improved”, the Target engagement [6] was “demonstrated” and the “Hot Solubility (est)” value ([7]; 1-Butanol) was greater than 10 mg/mL. For the same molecule, the “Hot Solubility (est)” value ([7]; 1-Pentanol) was greater than 10 mg/mL, the “Hot Solubility (est)” value ([7]; Acetone) was greater than 10 mg/mL and the “Hot Solubility (est)” value ([7]; Ethanol) was greater than 10 mg/mL. For the same molecule, the “Hot Solubility (est)” value ([7]; Hexane) was less than 2 mg/mL, the “Hot Solubility (est)” value ([7]; Isobutyl Alcohol) was greater than 10 mg/mL and the “Hot Solubility (est)” value ([7]; Methanol) was greater than 10 mg/mL. The “Hot Solubility (est)” value ([7]; Water) was less than 2 mg/mL.
